Measurements reported in patent US10532066B2, “Surfactant lipids, compositions thereof, and uses thereof” (National Jewish Health, priority 2007, dated 2020).

Legend:
[1] = target: sTLR4 (Homo sapiens, UniProt O00206); assay: sTLR4 binding to solid phase POPG; settings: sTLR4 1 μg/ml
Description: (A) POPG (1.25 nmole) was placed onto microtiter wells and the solvent evaporated. After blocking nonspecific binding with buffer A, MD-2, sTLR4 and PstB2 (1 μg/ml) in buffer A were added and incubated at 37° C. for 1 h. The binding of recombinant proteins to POPG was detected using anti-His antibody. […] The data shown are the means±S.E. from three separate experiments each with duplicate determinations.

[2] = system: TLR7; assay: TLR agonist IL-8 production in primary human neutrophils, TLR7; type: cell-based; settings: polyU, 5-24 h
Description: (§1) In this experiment, multiple TLRs were stimulated with defined TLR agonists for 5-24 h as indicated, and the IL-8 production was measured. In each case the maximal stimulation by agonist is set at 100% and the antagonism by POPG is expressed as the relative % response. The Controls consist of no treatment, or treatment with POPG, in the absence of agonist as indicated. The agonists for the TLRs consist of Pam3Cys for TLR1/2, double stranded RNA (poly IC) for TLR3, Gram-negative lipopolysaccharide (LPS) for TLR4, and single stranded RNA (polyU) for TLR7/8.

[3] = system: TNF-α stimulated macrophages; assay: IkBα degradation in TNF-α stimulated macrophages; type: cell-based; settings: TNF-α 10 ng/ml
Description: Protein synthesis was measured by determining [^3H]-Leucine incorporation into trichloroacetic acid precipitable material in the presence and absence of 200 μg/ml POPG. No changes in protein synthesis occurred over a 6 hr period in POPG treated U937 cells compared to untreated cells in 3 independent experiments. […] In these studies, macrophages were treated with TNF-α (10 ng/ml) and the degradation of IkBα was measured. […] Collectively, these studies indicate that the actions of the anionic lipids upon LPS signaling are specific.

[4] = target: T1, TLR6 (Mus musculus, UniProt Q9EPW9); assay: TLR agonist TNFα production in RAW 264.7 cells, TLR6; type: cell-based; settings: MALP2, 24 h
T1 construct: endogenous in cells; host or cells: RAW 264.7
Description: In this experiment, multiple TLRs were stimulated with defined TLR agonists for 24 h and the TNFα production was measured. In each case, the maximal stimulation by agonist is set at 100% and the antagonism by POPG is expressed as the relative % response. The Controls consist of no treatment, or treatment with POPG in the absence of agonist as indicated. The agonists for the TLRs consist of Pam3Cys for TLR1/2, Mycoplasma pneumoniae membranes as an agonist for TLR2, mycoplasma derived MALP2 as an agonist for TLR 2/6, double stranded RNA (poly IC) for TLR3, Gram-negative lipopolysaccharide for TLR4, and CpG rich DNA as an agonist for TLR9. The TLR4 panel also contains the antagonist polymyxin B (PB) for comparison with POPG.

[5] = system: RSV; assay: RSV infection of mice; type: in vivo; settings: 10^7 RSV with 200 ug/ml POPG, three days
Description: Groups of 8 mice were inoculated with 10^7 RSV in either the absence (RSV), or presence of 200 ug/ml POPG (RSV+POPG). Control experiments consisted of UV inactivated RSV (URV), or saline treatment (CON), or POPG treatment without virus (POPG). Three days after the inoculations, the animals were killed and the lungs harvested and processed for viral content by quantitative plaque assay (left panel of FIG. 41), and histopathology (right panel of FIG. 41)

[6] = system: multiple TLRs; assay: Activation of primary bronchial epithelial cells by multiple TLRs (IL-8, Example 9); type: cell-based, human; settings: 200 ug/ml POPG, 24 h
Description: Monolayers of normal human bronchial epithelial cells were stimulated with the TLR3 agonist, polyI:C (0.1 ug/ml); the TLR5 agonist, flagellin (10 ng/ml) and the TLR7/8 agonist polyU (100 ug/ml) for 24 h in either the absence or presence of 200 ug/ml POPG, or POPC as indicated. Cultures were also treated with POPG or POPC alone, as additional controls. After 24 h the medium was harvested and centrifuged to remove non-adherent cells, and processed to detect IL-8 production by ELISA. Values shown in FIG. 33 are averages±SE for 3 independent experiments.

[7] = system: Respiratory Syncytial Virus (RSV); assay: RSV-induced cytokine production in NHBE cells; type: cell-based
[8] = system: Respiratory Syncytial Virus (RSV); assay: RSV-induced cytokine production in BEAS2B cells; type: cell-based
[9] = target: T2, TLR3 (Homo sapiens, UniProt O15455); assay: TLR agonist IL-8 production in primary human neutrophils, TLR3; type: cell-based; set-up: endogenous in cells; host or cells: primary human neutrophils; settings: poly IC, 5-24 h
T2 sequence (O15455 24-904): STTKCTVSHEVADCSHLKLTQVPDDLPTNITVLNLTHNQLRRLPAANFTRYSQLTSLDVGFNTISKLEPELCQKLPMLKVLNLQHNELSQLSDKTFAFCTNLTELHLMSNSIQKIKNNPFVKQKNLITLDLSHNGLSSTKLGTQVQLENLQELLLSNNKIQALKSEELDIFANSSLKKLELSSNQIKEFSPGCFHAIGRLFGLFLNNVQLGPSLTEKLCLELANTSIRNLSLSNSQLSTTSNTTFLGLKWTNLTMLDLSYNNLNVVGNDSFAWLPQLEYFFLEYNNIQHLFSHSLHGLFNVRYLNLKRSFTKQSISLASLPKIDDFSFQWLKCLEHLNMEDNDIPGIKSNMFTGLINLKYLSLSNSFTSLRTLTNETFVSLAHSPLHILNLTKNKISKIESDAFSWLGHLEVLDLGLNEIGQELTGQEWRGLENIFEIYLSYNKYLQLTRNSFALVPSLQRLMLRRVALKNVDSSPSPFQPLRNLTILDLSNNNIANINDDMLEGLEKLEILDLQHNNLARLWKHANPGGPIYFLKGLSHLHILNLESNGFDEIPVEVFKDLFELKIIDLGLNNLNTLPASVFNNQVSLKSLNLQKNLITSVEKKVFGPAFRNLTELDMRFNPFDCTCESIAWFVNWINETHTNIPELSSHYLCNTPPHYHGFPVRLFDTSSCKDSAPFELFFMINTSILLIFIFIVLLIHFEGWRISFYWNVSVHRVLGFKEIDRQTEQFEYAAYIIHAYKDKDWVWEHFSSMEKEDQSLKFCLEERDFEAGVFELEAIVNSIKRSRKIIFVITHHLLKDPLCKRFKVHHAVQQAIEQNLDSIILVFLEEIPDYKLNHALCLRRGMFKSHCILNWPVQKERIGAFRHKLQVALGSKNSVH
Description: as §1

[10] = target: T3, PstB2 (Saccharomyces cerevisiae, UniProt P53844); assay: PstB2 control protein binding to solid phase POPG; set-up: species or system yeast; settings: PstB2 1 μg/ml
T3 construct: made in house; host or cells: baculovirus-insect cell expression system
From the text: FIG. 16. MD-2 preferentially binds POPG.

[11] = RSV multiplicity 0.5-1, 48 h, 200 ug/ml
[12] = RSV multiplicity 3, 48 h, lipid 200 ug/ml

Chain of sTLR4 (O00206 24-631): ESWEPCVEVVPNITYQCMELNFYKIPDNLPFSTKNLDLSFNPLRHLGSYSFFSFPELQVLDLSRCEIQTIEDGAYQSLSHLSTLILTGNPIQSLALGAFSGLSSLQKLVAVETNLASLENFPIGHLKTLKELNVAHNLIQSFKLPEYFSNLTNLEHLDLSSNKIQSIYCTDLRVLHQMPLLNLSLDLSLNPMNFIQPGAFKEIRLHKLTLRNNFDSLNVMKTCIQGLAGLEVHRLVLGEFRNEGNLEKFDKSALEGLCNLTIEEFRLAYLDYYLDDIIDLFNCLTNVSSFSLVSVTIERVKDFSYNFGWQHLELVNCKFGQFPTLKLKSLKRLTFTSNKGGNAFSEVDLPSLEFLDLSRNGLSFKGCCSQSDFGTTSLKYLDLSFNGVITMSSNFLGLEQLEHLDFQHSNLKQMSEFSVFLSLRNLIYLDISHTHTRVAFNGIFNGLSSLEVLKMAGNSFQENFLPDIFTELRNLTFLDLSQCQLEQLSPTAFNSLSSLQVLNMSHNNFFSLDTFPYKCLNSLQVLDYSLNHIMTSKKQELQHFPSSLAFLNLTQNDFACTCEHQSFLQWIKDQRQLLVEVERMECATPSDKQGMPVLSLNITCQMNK
T1 sequence (Q9EPW9 28-795): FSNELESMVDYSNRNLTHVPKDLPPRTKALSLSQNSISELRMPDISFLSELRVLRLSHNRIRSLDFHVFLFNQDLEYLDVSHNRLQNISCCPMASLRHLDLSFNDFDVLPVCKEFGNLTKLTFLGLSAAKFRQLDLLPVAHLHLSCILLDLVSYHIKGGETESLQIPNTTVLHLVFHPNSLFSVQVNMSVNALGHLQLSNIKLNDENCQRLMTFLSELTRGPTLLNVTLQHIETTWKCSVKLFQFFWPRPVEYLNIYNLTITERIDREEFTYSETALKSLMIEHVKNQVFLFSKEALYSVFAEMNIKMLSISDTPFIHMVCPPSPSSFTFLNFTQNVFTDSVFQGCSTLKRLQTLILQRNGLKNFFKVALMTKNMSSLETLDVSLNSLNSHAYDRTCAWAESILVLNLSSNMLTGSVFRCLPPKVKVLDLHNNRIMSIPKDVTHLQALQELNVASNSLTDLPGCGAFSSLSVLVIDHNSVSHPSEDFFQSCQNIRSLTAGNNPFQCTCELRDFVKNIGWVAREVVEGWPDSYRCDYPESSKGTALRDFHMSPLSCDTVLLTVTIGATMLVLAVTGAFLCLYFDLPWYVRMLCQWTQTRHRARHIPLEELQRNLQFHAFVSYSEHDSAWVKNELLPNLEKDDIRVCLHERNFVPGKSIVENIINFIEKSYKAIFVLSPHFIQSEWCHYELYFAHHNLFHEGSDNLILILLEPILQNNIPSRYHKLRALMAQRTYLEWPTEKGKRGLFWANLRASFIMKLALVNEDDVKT
T3 sequence (P53844 whole entry): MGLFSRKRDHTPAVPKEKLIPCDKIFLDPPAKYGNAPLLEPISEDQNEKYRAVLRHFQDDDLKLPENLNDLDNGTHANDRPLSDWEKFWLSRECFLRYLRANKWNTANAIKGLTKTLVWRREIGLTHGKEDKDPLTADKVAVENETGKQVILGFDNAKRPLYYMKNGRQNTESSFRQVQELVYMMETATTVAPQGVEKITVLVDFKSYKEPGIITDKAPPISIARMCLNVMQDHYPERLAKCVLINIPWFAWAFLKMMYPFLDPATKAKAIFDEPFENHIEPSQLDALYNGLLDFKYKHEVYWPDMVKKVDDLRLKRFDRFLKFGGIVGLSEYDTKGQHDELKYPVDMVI

## CCCCCCCC/C=C\CCCCCCCC(=O)O[C@H](COC(=O)CCCCCCCCCCCCCCC)COP(=O)(O)OCC(O)CO (stereo partly drawn) [POPG, palmitoyl-oleoyl-phosphatidylglycerol]
[1]
  binding to sTLR4: not
[2]
  activity of TLR7 (IL-8 production): inhibits
[3]
  IkBα degradation after TNF-α stimulation: failed to alter
[4]
  activity of TLR6 (TNFα production): inhibits
[5]
  RSV infection in vivo (lung viral content, histopathology): suppresses
[6]
  activation of primary bronchial epithelial cells by multiple TLRs (IL-8): inhibits activation
[7]; [11]
  inflammatory cytokine production (IL-6, IL-8): suppresses
[7]; [12]
  IL-6 production: inhibits
  IL-8 production: inhibits
[8]; RSV multiplicity 0.5, 48 hours
  IL-8 production, varying concentrations of POPG: inhibits IL-8 production from epithelial cells in a concentration-dependent manner
[8]; [11]
  inflammatory cytokine production (IL-6, IL-8): suppresses
[8]; [12]
  IL-6 production: inhibits
  IL-8 production: inhibits
[9]
  activity of TLR3 (IL-8 production): inhibits
[10]
  binding to PstB2: not
